This passage reports Ki results from ChEMBL document CHEMBL1134092, “alpha-Keto heterocycle inhibitors of fatty acid amide hydrolase: carbonyl group modification and alpha-substitution” (Bioorg Med Chem Lett, 2001).

Molecules are shown by their SMILES.

This test has as its target T1, Fatty-acid amide hydrolase 1 (Rattus norvegicus, UniProt P97612).
T1 sequence (P97612 whole entry): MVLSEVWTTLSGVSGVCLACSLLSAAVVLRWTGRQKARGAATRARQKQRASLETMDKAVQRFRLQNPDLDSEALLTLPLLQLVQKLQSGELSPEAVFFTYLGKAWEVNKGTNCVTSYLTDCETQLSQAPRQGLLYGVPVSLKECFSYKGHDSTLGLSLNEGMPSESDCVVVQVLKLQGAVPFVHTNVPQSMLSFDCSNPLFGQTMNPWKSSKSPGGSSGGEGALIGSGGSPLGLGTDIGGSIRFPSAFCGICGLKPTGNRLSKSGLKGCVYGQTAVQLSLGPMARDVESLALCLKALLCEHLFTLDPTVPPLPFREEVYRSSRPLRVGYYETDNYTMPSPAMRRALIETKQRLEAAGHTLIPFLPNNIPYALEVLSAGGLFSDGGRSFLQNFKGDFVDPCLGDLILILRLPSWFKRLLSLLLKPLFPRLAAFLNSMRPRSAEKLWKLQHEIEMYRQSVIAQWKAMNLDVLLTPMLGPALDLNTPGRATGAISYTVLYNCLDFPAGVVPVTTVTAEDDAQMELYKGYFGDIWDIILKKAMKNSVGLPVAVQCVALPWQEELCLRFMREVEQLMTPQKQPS
Briefly: Inhibitory activity against fatty acid amide hydrolase (FAAH).
One may read the Ki as a dissociation constant, usually derived from enzyme kinetics or from competition with a known ligand. In turn, `CCCCCCCC/C=C\CCCCCCCC(=O)c1nc2ccccc2o1` had a Ki of 150 nM.
As for `CCCCCCCC/C=C\CCCCCCCC(=O)c1ncco1`, the figure is 100 nM; as for `CCCCCCCC/C=C\CCCCCCCC(=O)c1nc2ncccc2o1`, 2.3 nM.
